Results as given in patent publication US20030109532A1, “Modulators of dopamine neurotransmission” (priority 2002, published 2003).
Counter-ions that a name gives are not always drawn.

Columns and labels:
rats = experiment: In vivo test: behavior, spontaneous motor activity (distance traveled in motility meter); design: species or system rat; conditions: n=4; for motoractivity in the behavioral assay: 100 μmol/kg s.c., 0-60 min
[1] = test system: 3,4-dihydroxyphenylacetic acid (DOPAC) in the striatum; experiment: In vivo test: neurochemistry, 3,4-dihydroxyphenylacetic acid (DOPAC) in the striatum; design: species or system rat; conditions: 100 μmol/kg s.c., n=4
Text: (§1) In vivo Test: Neurochemistry
(§2) After the behavioral activity sessions the rats were decapitated and their brains rapidly taken out and put on an ice-cold petri-dish. The limbic forebrain, the striatum, the frontal cortex and the remaining hemispheral parts of each rat were dissected and frozen. Each brain part was subsequently analyzed with respect to its content of monoamines and their metabolites. The monoaminergic indices analyzed were dopamine (DA), 3,4-dihydroxyphenylacetic acid (DOPAC), homovanillic acid (HVA), 3-methoxytyramine (3-MT), serotonin (5-HT), 5-hydroxyindole acetic acid (5-HIAA), and noradrenaline (NA). All monoaminergic indices in the dissected tissue were analyzed by means of HPLC with electrochemical detection as described by Svensson K, et al., 1986, NaunynSchmiedeberg's Arch Pharmacol 334: 234-245 and references cited therein.

[2] = test system: serotonin in the striatum; experiment: In vivo test: neurochemistry, serotonin (5-HT) in the striatum; design: species or system rat; conditions: n=4
Text: as §1, §2

[3] = test system: rats pretreated with d-amphetamine; experiment: In vivo test: behavior, d-amphetamine induced hyperactivity; design: species or system rat; conditions: 100 μmol/kg s.c.; d-amphetamine 1.5 mg/kg s.c. pretreatment, n=4

SMILES	melting point	motoractivity in the behavioral assay (rats)	3,4-dihydroxy-phenylacetic acid in the striatum [1]	other results
CCCN1[C@H](C)CN(c2cccc(S(C)(=O)=O)c2)C[C@@H]1C (as salt: HCl) [Example 3, cis-4-(3-Methanesulfonyl-phenyl)-2,6-dimethyl-1-propyl-piperazine]	233 °C	–	–	–
CCCN1CC[C@H](c2cccc(S(C)(=O)=O)c2)[C@H](C)C1 (relative stereo) (as salt: HCl) [Example 4, cis-4-(3-Methanesulfonyl-phenyl)-3-methyl-1-propyl-piperidine]	197 °C	–	–	–
CCCN1CC[C@H](c2cccc(S(C)(=O)=O)c2)[C@H](C)C1 (relative stereo) [Example 4, cis-4-(3-Methanesulfonyl-phenyl)-3-methyl-1-propyl-piperidine]	–	4948±577 cm/60 min	1884±98 ng/g tissue	–
CCCN1CCN(c2cccc(C(F)(F)F)c2)CC1 [1-propyl-4-(3-triflouro-methyl-phenyl)-piperazine, reference compound]	–	–	–	motoractivity in the behavioral assay (behavioral inhibition) (rats; 50 μmol/kg s.c.): 271±137 cm/60 min; serotonin in the striatum ([2]; 50 μmol/kg s.c.): 308±18 ng/g tissue
CCCN1[C@H](C)CN(c2cccc(C(F)(F)F)c2)C[C@@H]1C [Example 2, cis-2,6-Dimethyl-1-propyl-4-(3-trifluoro-methyl-phenyl)-piperazine]	–	3619±483 cm/60 min	1388±60 ng/g tissue	serotonin in the striatum ([2]; 100 μmol/kg s.c.): 419±23 ng/g tissue
CCCN1[C@H](C)CN(c2cccc(S(C)(=O)=O)c2)C[C@@H]1C [Example 3, cis-4-(3-Methanesulfonyl-phenyl)-2,6-dimethyl-1-propyl-piperazine]	–	–	3140±169 ng/g tissue	motor activity (rats; 100 μmol/kg, 30-60 min post injection): 253±73 cm/30 min; d-amphetamine induced hyperactivity [3]: 2492±530 cm/60 min
